Series [1] is described as follows: stabilisation of the lachrymal film when inserting contact lenses. Particulars: when/after inserting the contact lenses. An excerpt: Dexpanthenol, an alcohol of pantothenic acid, also called Provitamin B5, D-pantothenyl alcohol or D-panthenol, has been used for a long time for healing wounds or in the field of medicinal skin care. […] Vortex motion of the lachrymal liquid can occur through the insertion of contact lenses, namely because of mechanical eruption or through surface-active substances optionally present in the contact lens solution and can lead to severe loss of the aqueous lachrymal layer. […] This guards against the appearance of dryness, which can lead to a reduced lachrymal film.
The addition of D-sorbit to adjust the tonicity of contact lens care products is known. GB 2,205,175 and U.S. Pat. No. 3,888,782 describe sorbit as a carrier material for the preparation of powder mixtures for contact lens care products. […] This guards against the appearance of dryness, which can lead to a reduced lachrymal film. […] Negative effects caused by surface-active substances and preservatives are reduced and the contact lenses are prevented from drying out.

Series [2] is described as follows: cytotoxicity studies on addition of dexpanthenol and D-sorbit. In kind it is cell-based. Particulars: addition of sorbit to compositions containing antimicrobial compounds, e.g. PHMB.
Series [3] can be described thus: antimicrobial (microbiological) efficacy of contact lens care solutions. Particulars: addition of sorbit to contact lens care compositions.

The structures appear in SMILES notation.

Turning to `CC(C)(CO)[C@@H](O)C(=O)NCCCO` [dexpanthenol], the lachrymal film stabilisation entry in series [1] is recorded as “stabilises the lachrymal film”.

`OC[C@@H](O)[C@@H](O)[C@H](O)[C@@H](O)CO` [sorbit, D-sorbit]: the toxicity entry in series [2] is “without resulting in negative effects as regards toxicity”. Besides, the “effect on microbiological efficacy of antimicrobial compounds present, e.g. PHMB” value in series [3] was “substantially increases the microbiological efficacy”.

The values are drawn from patent publication US7615523B2, “Lens care product containing dexpanthenol” (Novartis AG, priority 2006, dated 2009).
